Results on 2 compounds are retold here after article PMC9583322, “Vicinal Diaryl-Substituted Isoxazole and Pyrazole Derivatives with In Vitro Growth Inhibitory and In Vivo Antitumor Activity” (ACS Omega, 2022).

For test [1], the system named is hepatocellular carcinoma and breast cancer cell lines. The experiment in a line: SRB cytotoxicity, cell line panel. The format is cell-based. Particulars: Homo sapiens, range over hepatocellular carcinoma and breast cancer cell lines. The protocol:
Mahlavu, FOCUS, SNU475 (1000 cell/well in 150 μL/well); Huh7, MCF7 (2500 cell/well in 150 μL/well); HepG2, Hep3B, SKBR3 (3000 cell/well in 150 μL/well); PLC-PRF-5, Hep40 (5000 cell/well in 150 μL/well); MDA-MB-231, MDA-MB-468, MCF10A (6000 cell/well in 150 μL/well); and ZR-75 (7500 cell/well in 150 μL/well) were cultured in 96-well plates and were inoculated in an incubator for 24 hours. The compounds were dissolved in dimethyl sulfoxide (DMSO) (Sigma, St Louis, MO) as a 20 mM stock solution. The treatment of cells with the compounds was done in a concentration range starting from 40 to 2.5 μM. The compounds which were below 2.5 μM were tested in a concentration range from 2.5 to 0.15 μM. End of the 72h compound treatment, the cells were fixed using 10% (v/v) trichloroacetic acid (MERCK) for an hour and washed with ddH2O, and left for air-drying. The fixed plates were stained with 50 μL of sulforhodamine B (SRB) solution (Sigma) at RT for 10 min. To remove unbound SRB dye, acetic acid was used to wash cells three times and left for drying. The protein-bound SRB was solubilized with 10 mM Tris-base (Sigma) and their absorbance was measured with a 96-well plate reader at 515 nm wavelength (ELx800, Biotek). The IC50 values of compounds were calculated in comparison with control group DMSO. Data with R^2 values larger than 0.9 are considered significant.

Another test concerns MCF10A. The experiment in a line: Real-time cell electronic sensing (RT-CES). The conditions noted are these: 2.5, 5, 10 μM; immortalized normal breast epithelial cells. The format is cell-based, human. The procedure:
(§1) To monitor the real-time cell growth of cells and cytotoxicity of compounds, the xCELLigence system (Roche Applied Sciences) was used. The cells were seeded onto 96-well E-Plate Mahlavu (1500 cell/well), MCF7, Huh7 (2500 cell/well), MDA-MB-231 (5000 cell/well), and MCF10A (6000 cell/well) in 100 μL of the medium/well. To examine the proliferation of cells, the cellular growth was monitored as cell index (CI) every 30 min for 24 h. When the cells were in a log growth phase, treatment with compounds 11 and 85 in 2.5, 5, and 10 μM concentrations was done, the CI values were recorded every 10 min for 24 h for controlling fast drug response and then every 30 min for the remaining 48 h for long-term dose response. After 72 h of incubation, the cellular growth ratios were calculated by CIDrug/CIDMSO.

Test [2] deals with Mahlavu, Huh7, MDA-MB-231, and MCF-7. In words: Real-time cell electronic sensing (RT-CES). The conditions noted are these: 2.5, 5, 10 μM; compared to control (DMSO). The class given is cell-based, human. The procedure: as §1
A further test concerns A498. The experiment in a line: NCI-60 single-dose screen. Particulars: Homo sapiens, A498, Renal Cancer, read-out: % Growth Inhibition (GI%). The format is cell-based. The procedure:
(§2) Moreover, in vitro single-dose anticancer screening of 11 and 85 at 10 μM was performed utilizing the stable panel of 60 cell lines comprising 9 different cancer types at the National Cancer Institute (NCI) under the Developmental Therapeutics Program (Table S1).[31]

The next test relates to BT-549. In words: NCI-60 single-dose screen. The conditions noted are these: Homo sapiens, BT-549, Breast Cancer, read-out: % Growth Inhibition (GI%). The format is cell-based. The protocol:
as §2

The test system of another test is CAKI-1. In words: NCI-60 single-dose screen. The class given is cell-based. The conditions noted are these: Homo sapiens, CAKI-1, Renal Cancer, read-out: % Growth Inhibition (GI%). The protocol: as §2
In the next test the test system is CCRF-CEM. In words: NCI-60 single-dose screen. Particulars: Homo sapiens, Leukemia, read-out: % Growth Inhibition (GI%). The format is cell-based. The protocol: as §2
The next test has as its system EKVX. The experiment in a line: NCI-60 single-dose screen. The conditions noted are these: Homo sapiens, Non-Small Cell Lung Cancer, read-out: % Growth Inhibition (GI%). The class given is cell-based. The protocol:
as §2

The next test has as its system HT29. The experiment in a line: NCI-60 single-dose screen. The conditions noted are these: Homo sapiens, HT-29, HT29, Colon Cancer, read-out: % Growth Inhibition (GI%). The format is cell-based. The protocol:
as §2

In a further test the test system is MDA-MB-435. In words: NCI-60 single-dose screen. The format is cell-based. Particulars: Homo sapiens, MDA-MB-435, Melanoma, read-out: % Growth Inhibition (GI%). The protocol:
as §2

For another test, the system named is NCI-H226. In words: NCI-60 single-dose screen. The format is cell-based. The conditions noted are these: Homo sapiens, NCI-H226, Non-Small Cell Lung Cancer, read-out: % Growth Inhibition (GI%). The protocol:
as §2

Another test relates to NCI-H322M. The experiment in a line: NCI-60 single-dose screen. The class given is cell-based. Particulars: Homo sapiens, Non-Small Cell Lung Cancer, read-out: % Growth Inhibition (GI%). The procedure: as §2
In another test the test system is OVCAR-8. In words: NCI-60 single-dose screen. The format is cell-based. The conditions noted are these: Homo sapiens, OVCAR-8, Ovarian Cancer, read-out: % Growth Inhibition (GI%). The procedure: as §2
Another test concerns RXF 393. In words: NCI-60 single-dose screen. The format is cell-based. Particulars: Homo sapiens, RXF 393, Renal Cancer, read-out: % Growth Inhibition (GI%). The procedure: as §2
A further test deals with SK-MEL-28. In words: NCI-60 single-dose screen. The conditions noted are these: Homo sapiens, SK-MEL-28, Melanoma, read-out: % Growth Inhibition (GI%). The class given is cell-based. The protocol:
as §2

The next test relates to SK-MEL-5. The experiment in a line: NCI-60 single-dose screen. The class given is cell-based. The conditions noted are these: Homo sapiens, SK-MEL-5, Melanoma, read-out: % Growth Inhibition (GI%). The protocol: as §2
For the next test, the system named is SK-OV-3. In words: NCI-60 single-dose screen. The format is cell-based. Particulars: Homo sapiens, SK-OV-3, Ovarian Cancer, read-out: % Growth Inhibition (GI%). The protocol:
as §2

The test system of a further test is SN12C. In words: NCI-60 single-dose screen. The class given is cell-based. The conditions noted are these: Homo sapiens, Renal Cancer, read-out: % Growth Inhibition (GI%). The procedure: as §2
The test system of another test is SNB-19. In words: NCI-60 single-dose screen. The class given is cell-based. Particulars: Homo sapiens, SNB-19, CNS Cancer, read-out: % Growth Inhibition (GI%). The procedure: as §2
Another test deals with SW-620. In words: NCI-60 single-dose screen. The class given is cell-based. The conditions noted are these: Homo sapiens, SW-620, Colon Cancer, read-out: % Growth Inhibition (GI%). The protocol: as §2
For another test, the system named is TK-10. In words: NCI-60 single-dose screen. The conditions noted are these: Homo sapiens, TK-10, Renal Cancer, read-out: % Growth Inhibition (GI%). The class given is cell-based. The procedure: as §2
Another test relates to UACC-257. The experiment in a line: NCI-60 single-dose screen. The class given is cell-based. The conditions noted are these: Homo sapiens, UACC-257, Melanoma, read-out: % Growth Inhibition (GI%). The protocol: as §2
The test system of another test is UACC-62. In words: NCI-60 single-dose screen. The format is cell-based. The conditions noted are these: Homo sapiens, UACC-62, Melanoma, read-out: % Growth Inhibition (GI%). The procedure: as §2
The subject of another test is UO-31. In words: NCI-60 single-dose screen. The class given is cell-based. The conditions noted are these: Homo sapiens, UO-31, Renal Cancer, read-out: % Growth Inhibition (GI%). The procedure: as §2

Broadly, the IC50 is the point on the concentration scale where inhibition reaches its midpoint. The low end stands for inhibition by little substance, the high end for a need for much substance. By inhibition is commonly meant how much of the control response was suppressed. `Cc1ccccc1COc1ccc(-c2ccnn2-c2ccc(Cl)cc2)cc1` [compound 85, 1-(4-Chlorophenyl)-5-(4-((2-methylbenzyl)oxy)phenyl)-1H-pyrazole]: the IC50 in test [1] lay in the range of 0.7 to 9.5 µM. In addition, the “Real-time cell growth response, MCF10A” value in the test on MCF10A was “no difference in the growth”. For the same compound, the “Real-time cell growth response, cancer cell lines” value in [2] is listed as “inhibition in the growth”. In addition, the inhibition at 10 µM is 42.5% in the test with A498; 25% in the test on BT-549; 40.3% in the test on CAKI-1; 57.6% in the test with CCRF-CEM; 22.9% in the test on EKVX; 82.4% with HT29. Also, the inhibition at 10 µM came out at 99.2% with MDA-MB-435; 29.7% in the test with NCI-H226; 3.12% in the test with NCI-H322M; 24.8% in the test with OVCAR-8; 39.7% with RXF 393; 30.6% in the test with SK-MEL-28. Also, the inhibition at 10 µM turned out to be 33.4% with SK-MEL-5; 36.3% in the test with SK-OV-3; 32.4% in the test with SN12C; 38% with SNB-19; 70.3% with SW-620; 16.2% in the test on TK-10. Further, the figures for the inhibition at 10 µM in the test with UACC-257, in the test on UACC-62 and with UO-31 were 24.3%, 39.3% and 25.6%, respectively.
In test [1], `Cc1ccccc1COc1ccc(-c2noc(C)c2-c2ccc(Cl)cc2)cc1` [compound 11, 4-(4-Chlorophenyl)-5-methyl-3-(4-((2-methylbenzyl)oxy)phenyl)isoxazole] yielded an IC50 of 0.7 to 9.5 µM. The “Real-time cell growth response, MCF10A” value in the test with MCF10A is “no difference in the growth”. The “Real-time cell growth response, cancer cell lines” value in [2] is “inhibition in the growth”. The inhibition at 10 µM with A498 came out at 61.4%; in the test with BT-549, 33.8%; in the test on CAKI-1, 51.3%; in the test on CCRF-CEM, 61.8%; with EKVX, 24.9%; in the test on HT29, 83.1%. For the same compound, the inhibition at 10 µM in the test on MDA-MB-435 was determined as 100%; with NCI-H226, 42.8%; with NCI-H322M, 2.44%; in the test with OVCAR-8, 24.2%; with RXF 393, 29.8%; in the test on SK-MEL-28 it was 29.6%. The inhibition at 10 µM with SK-MEL-5 came to 26.6%; in the test on SK-OV-3 it was 40.5%; with SN12C it was 31.7%; in the test on SNB-19, 44.5%; in the test with SW-620, 68.3%; with TK-10, 15.7%. Also, the inhibition at 10 µM in the test with UACC-257 turned out to be 29.1%; in the test with UACC-62, 51.5%; in the test on UO-31 it was 25.6%.
